Results from ChEMBL document CHEMBL5360648, “Identification of 5-HT2 Serotonin Receptor Modulators through the Synthesis of a Diverse, Tropane- and Quinuclidine-alkaloid-Inspired Compound Library” (J Med Chem, 2023).

What was measured:
[1] = biological target: T1, 5-hydroxytryptamine receptor 2A (Homo sapiens, UniProt P28223); assay: Antagonist activity at 5-HT2A receptor in HEK293 cells assessed as calcium mobilisation by Fluo-4 dye based assay; assay type: functional, cell-based
[2] = biological target: T2, 5-hydroxytryptamine receptor 2C (Homo sapiens, UniProt P28335); assay: Antagonist activity at 5-HT2C receptor in HEK293 cells assessed as calcium mobilisation by Fluo-4 dye based assay; assay type: functional, cell-based
T2 sequence (P28335 whole entry): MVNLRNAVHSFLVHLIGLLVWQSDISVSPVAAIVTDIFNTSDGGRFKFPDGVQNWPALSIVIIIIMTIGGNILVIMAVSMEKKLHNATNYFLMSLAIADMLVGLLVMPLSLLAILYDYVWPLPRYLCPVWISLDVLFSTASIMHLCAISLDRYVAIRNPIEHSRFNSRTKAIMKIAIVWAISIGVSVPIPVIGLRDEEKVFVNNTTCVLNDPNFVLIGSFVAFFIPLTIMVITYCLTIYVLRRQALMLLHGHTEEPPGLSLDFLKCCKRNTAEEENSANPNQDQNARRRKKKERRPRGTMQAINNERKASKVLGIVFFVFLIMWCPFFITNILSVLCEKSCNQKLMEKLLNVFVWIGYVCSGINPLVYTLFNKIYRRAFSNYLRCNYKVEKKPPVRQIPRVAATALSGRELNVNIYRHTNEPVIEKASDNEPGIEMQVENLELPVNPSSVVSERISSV

[3] = biological target: T1, 5-hydroxytryptamine receptor 2A; assay: Agonist activity at 5-HT2A receptor in HEK293 cells assessed as calcium mobilisation by Fluo-4 dye based assay
[4] = biological target: Neuronal acetylcholine receptor; alpha4/beta2 (Homo sapiens) (UniProt P17787+P43681); assay: Inhibition of [3H]epibatidine from binding to human nACh receptor alpha4beta2 expressed in HEK293 cell membrane at 10 uM incubated for 2.5 hrs by liquid scintillation counting analysis relative to control; assay type: cell membranes
[5] = biological target: Neuronal acetylcholine receptor; alpha3/beta4 (Rattus norvegicus) (UniProt P04757+P12392); assay: Inhibition of [3H]epibatidine from binding to rat nACh receptor alpha3beta4 expressed in HEK293 cell membrane at 10 uM incubated for 2.5 hrs by liquid scintillation counting analysis relative to control; assay type: cell membranes
[6] = biological target: 5-hydroxytryptamine receptor 6 (Homo sapiens) (UniProt P50406); assay: Inhibition of [3H]LSD from binding to 5-HT6 receptor (unknown origin) at 10 uM relative to control
[7] = Antagonist activity at 5-HT-induced 5-HT2B signaling in CHO cells by IP1 assay; conditions: Cricetulus griseus
[8] = biological target: 5-hydroxytryptamine receptor 7 (Homo sapiens) (UniProt P34969); assay: Inhibition of [3H]LSD from binding to 5-HT7 receptor (unknown origin) at 1 uM relative to control
[9] = biological target: 5-hydroxytryptamine receptor 7 (Homo sapiens) (UniProt P34969); assay: Inhibition of [3H]LSD from binding to 5-HT7 receptor (unknown origin) at 10 uM relative to control
[10] = biological target: T3, Muscarinic acetylcholine receptor M1 (Homo sapiens) (UniProt P11229); assay: Inhibition of [3H]pirenzepine from binding to M1 receptor (unknown origin) at 10 uM relative to control
T3 sequence (whole entry): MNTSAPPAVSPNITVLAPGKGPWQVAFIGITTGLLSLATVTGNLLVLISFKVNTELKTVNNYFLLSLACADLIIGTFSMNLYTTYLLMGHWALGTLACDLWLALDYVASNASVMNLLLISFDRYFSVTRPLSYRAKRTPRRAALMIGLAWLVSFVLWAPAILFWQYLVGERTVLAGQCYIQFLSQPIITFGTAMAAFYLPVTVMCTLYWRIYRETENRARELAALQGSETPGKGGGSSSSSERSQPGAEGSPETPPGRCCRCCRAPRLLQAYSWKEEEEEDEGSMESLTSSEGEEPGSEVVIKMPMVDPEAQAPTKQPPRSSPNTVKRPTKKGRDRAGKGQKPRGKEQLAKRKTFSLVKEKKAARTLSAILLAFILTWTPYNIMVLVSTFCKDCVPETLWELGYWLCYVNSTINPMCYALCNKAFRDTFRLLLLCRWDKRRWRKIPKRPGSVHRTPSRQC

[11] = biological target: T4, Muscarinic acetylcholine receptor M5 (Homo sapiens) (UniProt P08912); assay: Inhibition of [3H]4-DAMP from binding to M5 receptor (unknown origin) at 10 uM relative to control
T4 sequence (whole entry): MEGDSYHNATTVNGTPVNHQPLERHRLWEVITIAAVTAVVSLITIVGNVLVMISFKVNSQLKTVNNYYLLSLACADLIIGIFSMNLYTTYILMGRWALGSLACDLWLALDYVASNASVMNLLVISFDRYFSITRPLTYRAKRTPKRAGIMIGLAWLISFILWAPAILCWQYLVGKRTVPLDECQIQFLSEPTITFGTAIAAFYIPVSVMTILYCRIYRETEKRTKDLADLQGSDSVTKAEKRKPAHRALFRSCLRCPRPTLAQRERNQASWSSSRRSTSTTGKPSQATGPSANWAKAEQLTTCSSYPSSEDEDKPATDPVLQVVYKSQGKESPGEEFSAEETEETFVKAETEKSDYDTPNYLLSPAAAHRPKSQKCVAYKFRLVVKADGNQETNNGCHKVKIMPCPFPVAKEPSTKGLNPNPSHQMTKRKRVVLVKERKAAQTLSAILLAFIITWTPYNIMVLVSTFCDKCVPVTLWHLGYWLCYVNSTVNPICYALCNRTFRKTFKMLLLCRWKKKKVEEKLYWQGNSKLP

[12] = biological target: T5, Muscarinic acetylcholine receptor M2 (Homo sapiens) (UniProt P08172); assay: Inhibition of [3H]AF-DX384 from binding to M2 receptor (unknown origin) at 10 uM relative to control
T5 sequence (whole entry): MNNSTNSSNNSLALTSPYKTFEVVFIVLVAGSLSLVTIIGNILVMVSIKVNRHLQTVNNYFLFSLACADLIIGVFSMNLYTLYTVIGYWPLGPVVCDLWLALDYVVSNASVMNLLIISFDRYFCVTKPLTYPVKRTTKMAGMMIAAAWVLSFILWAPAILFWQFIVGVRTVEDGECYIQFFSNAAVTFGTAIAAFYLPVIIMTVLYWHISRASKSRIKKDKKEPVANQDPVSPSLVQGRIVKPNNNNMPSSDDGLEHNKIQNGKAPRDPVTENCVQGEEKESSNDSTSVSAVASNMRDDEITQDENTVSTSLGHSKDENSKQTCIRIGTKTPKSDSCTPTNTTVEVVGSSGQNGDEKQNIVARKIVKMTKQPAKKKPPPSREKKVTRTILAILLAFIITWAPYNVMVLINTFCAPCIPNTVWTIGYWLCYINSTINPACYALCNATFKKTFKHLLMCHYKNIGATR

[13] = biological target: T6, Muscarinic acetylcholine receptor M4 (Homo sapiens) (UniProt P08173); assay: Inhibition of [3H]4-DAMP from binding to M4 receptor (unknown origin) at 10 uM relative to control
T6 sequence (whole entry): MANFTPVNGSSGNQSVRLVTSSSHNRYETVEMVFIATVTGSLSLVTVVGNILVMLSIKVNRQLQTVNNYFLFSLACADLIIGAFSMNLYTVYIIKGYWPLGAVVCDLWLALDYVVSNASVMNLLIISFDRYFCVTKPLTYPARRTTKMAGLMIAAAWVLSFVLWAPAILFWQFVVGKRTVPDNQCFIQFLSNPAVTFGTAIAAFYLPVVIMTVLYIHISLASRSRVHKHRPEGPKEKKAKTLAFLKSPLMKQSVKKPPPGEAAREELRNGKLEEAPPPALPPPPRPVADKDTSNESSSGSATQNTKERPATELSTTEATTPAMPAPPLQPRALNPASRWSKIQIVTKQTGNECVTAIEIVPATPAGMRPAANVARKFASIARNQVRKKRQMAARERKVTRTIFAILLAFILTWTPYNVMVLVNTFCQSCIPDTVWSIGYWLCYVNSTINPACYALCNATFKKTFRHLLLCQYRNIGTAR

Homo sapiens = organism: Homo sapiens; assay: Inhibition of [3H]BRL43694 from binding to 5-HT3 receptor (unknown origin) at 10 uM relative to control
[14] = biological target: T7, 5-hydroxytryptamine receptor 1A (Homo sapiens) (UniProt P08908); assay: Inhibition of [3H]-8-OH-DPAT from binding to 5-HT1A receptor (unknown origin) at 10 uM relative to control
T7 sequence (whole entry): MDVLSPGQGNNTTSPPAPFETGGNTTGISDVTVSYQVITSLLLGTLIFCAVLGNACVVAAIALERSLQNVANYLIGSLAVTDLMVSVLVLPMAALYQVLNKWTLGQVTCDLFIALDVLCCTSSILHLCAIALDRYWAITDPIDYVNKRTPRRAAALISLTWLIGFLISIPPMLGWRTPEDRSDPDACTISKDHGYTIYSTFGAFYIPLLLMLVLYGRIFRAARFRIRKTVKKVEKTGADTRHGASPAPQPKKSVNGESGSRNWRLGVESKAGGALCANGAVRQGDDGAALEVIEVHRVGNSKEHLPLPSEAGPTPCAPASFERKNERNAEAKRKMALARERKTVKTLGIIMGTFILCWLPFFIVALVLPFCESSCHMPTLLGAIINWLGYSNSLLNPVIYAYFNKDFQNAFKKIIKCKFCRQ

[15] = biological target: 5-hydroxytryptamine receptor 4 (Homo sapiens) (UniProt Q13639); assay: Inhibition of [3H]GR113808 from binding to 5-HT4E receptor (unknown origin) at 10 uM relative to control
[16] = biological target: Muscarinic acetylcholine receptor M3 (Homo sapiens) (UniProt P20309); assay: Inhibition of [3H]4-DAMP from binding to M3 receptor (unknown origin) at 10 uM relative to control
[17] = biological target: 5-hydroxytryptamine receptor 2B (Homo sapiens) (UniProt P41595); assay: Inhibition of [3H]mesulergine from binding to 5-HT2B receptor (unknown origin) at 10 uM relative to control
[18] = biological target: 5-hydroxytryptamine receptor 5A (Homo sapiens) (UniProt P47898); assay: Inhibition of [3H]LSD from binding to 5-HT5A receptor (unknown origin) at 10 uM relative to control
Chain of 5-hydroxytryptamine receptor 5A (Homo sapiens) (P47898 whole entry): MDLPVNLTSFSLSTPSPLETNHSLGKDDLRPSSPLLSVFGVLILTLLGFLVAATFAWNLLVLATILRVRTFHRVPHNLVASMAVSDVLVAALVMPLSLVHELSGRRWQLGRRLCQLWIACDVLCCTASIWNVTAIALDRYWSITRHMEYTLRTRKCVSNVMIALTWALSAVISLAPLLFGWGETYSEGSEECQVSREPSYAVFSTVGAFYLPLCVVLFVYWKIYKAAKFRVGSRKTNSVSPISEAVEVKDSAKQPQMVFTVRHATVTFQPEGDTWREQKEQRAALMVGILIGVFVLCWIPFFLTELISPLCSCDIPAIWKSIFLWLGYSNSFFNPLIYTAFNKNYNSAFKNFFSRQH

T1 sequence (P28223 whole entry): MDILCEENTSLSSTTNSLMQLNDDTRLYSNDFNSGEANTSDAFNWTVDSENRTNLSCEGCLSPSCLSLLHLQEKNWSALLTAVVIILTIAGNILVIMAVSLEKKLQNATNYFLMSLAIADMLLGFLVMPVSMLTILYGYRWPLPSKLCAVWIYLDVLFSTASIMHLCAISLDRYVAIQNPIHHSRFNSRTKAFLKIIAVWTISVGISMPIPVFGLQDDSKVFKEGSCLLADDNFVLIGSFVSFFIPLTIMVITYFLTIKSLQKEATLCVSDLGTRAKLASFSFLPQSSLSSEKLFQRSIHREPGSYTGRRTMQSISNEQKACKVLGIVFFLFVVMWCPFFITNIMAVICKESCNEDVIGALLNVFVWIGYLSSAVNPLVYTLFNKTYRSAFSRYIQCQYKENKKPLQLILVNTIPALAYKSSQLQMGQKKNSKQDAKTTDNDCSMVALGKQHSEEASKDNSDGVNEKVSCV
Chain of 5-hydroxytryptamine receptor 7 (Homo sapiens) (P34969 whole entry): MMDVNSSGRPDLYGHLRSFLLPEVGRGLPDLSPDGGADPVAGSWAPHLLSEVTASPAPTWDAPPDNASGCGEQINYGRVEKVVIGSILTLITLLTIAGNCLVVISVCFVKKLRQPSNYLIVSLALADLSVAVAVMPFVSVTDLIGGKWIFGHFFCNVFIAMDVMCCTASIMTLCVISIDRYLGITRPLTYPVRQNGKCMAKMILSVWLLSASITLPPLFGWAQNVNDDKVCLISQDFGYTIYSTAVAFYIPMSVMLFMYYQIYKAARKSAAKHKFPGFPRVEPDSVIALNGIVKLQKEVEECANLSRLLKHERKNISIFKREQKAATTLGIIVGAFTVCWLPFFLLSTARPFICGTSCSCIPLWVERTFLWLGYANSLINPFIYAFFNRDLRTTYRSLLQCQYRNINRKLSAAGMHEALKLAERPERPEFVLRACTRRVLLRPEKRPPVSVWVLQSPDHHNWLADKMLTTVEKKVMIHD
Chain of Muscarinic acetylcholine receptor M3 (Homo sapiens) (P20309 whole entry, looked up): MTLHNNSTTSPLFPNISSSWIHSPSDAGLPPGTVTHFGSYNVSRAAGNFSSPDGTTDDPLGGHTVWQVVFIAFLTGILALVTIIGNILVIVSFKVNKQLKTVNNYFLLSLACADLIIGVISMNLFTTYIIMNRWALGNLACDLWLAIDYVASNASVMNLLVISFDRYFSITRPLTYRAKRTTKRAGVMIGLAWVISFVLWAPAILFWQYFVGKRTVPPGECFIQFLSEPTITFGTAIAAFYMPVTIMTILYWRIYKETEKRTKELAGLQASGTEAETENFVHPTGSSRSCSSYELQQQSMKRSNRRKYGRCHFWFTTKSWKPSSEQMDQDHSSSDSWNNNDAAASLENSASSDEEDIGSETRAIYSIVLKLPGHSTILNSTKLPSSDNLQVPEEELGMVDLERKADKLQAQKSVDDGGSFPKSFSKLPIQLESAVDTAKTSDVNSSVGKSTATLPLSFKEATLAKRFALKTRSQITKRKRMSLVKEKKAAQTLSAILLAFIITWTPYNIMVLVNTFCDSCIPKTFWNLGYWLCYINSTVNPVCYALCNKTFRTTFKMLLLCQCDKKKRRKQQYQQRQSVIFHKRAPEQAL
Chain of 5-hydroxytryptamine receptor 6 (Homo sapiens) (P50406 whole entry): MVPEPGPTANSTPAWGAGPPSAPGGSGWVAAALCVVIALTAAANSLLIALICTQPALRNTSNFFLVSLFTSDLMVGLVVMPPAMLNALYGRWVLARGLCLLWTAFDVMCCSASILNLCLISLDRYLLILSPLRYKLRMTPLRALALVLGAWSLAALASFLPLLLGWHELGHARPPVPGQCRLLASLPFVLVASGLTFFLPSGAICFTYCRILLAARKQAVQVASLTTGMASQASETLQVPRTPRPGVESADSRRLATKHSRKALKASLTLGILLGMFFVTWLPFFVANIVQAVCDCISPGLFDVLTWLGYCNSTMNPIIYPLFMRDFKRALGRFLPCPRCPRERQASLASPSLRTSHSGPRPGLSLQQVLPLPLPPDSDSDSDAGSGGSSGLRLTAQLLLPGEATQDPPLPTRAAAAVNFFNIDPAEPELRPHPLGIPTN
Chain of 5-hydroxytryptamine receptor 2B (Homo sapiens) (P41595 whole entry): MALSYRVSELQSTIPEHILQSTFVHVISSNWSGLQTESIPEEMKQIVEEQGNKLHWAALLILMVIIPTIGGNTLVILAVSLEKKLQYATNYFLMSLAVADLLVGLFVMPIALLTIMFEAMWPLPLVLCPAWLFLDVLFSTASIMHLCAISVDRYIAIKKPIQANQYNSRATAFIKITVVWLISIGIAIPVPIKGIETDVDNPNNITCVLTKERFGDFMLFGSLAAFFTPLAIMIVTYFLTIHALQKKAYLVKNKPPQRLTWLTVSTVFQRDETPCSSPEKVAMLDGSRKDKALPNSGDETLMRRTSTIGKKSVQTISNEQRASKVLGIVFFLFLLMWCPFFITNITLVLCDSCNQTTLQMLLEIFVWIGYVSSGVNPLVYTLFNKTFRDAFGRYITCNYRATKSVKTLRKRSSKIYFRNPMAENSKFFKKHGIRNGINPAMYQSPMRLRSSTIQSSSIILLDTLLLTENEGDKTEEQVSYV
Chain of 5-hydroxytryptamine receptor 4 (Homo sapiens) (Q13639 whole entry): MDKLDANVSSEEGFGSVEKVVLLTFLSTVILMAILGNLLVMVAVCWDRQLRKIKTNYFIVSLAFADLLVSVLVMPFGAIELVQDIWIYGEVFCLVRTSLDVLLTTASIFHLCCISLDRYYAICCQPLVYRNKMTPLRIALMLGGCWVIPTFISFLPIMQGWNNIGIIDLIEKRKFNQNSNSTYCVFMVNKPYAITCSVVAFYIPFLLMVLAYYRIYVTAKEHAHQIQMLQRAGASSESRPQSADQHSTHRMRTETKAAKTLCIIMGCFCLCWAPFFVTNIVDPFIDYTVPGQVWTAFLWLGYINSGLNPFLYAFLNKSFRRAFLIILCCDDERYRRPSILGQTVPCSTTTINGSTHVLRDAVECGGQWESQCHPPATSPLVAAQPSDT

O=C1C[C@]2(CN3CCC2CC3)Oc2cc3ccccc3cc21
IC50 [1]: 50 µM
IC50 [2]: > 100 µM

O=C1C[C@]2(CN3CCC2CC3)Oc2ccc(Br)cc21
IC50 [1]: > 10 µM
IC50 [2]: > 10 µM

O=C1C[C@]2(CN3CCC2CC3)Oc2ccc(F)cc21
IC50 [1]: > 10 µM
IC50 [2]: > 10 µM

Cc1ccc2c(c1)O[C@]1(CC2=O)CN2CCC1CC2
IC50 [1]: > 100 µM
IC50 [2]: 2.5 µM

O=C1C[C@]2(CN3CCC2CC3)Oc2ccccc21
IC50 [1]: > 10 µM
IC50 [2]: > 10 µM

COc1ccc2c(c1)O[C@]1(CC2=O)CN2CCC1CC2
EC50 [3]: > 30 µM
IC50 [1]: > 30 µM
IC50 [2]: 0.52 µM

O=C1C[C@]2(CN3CCC2CC3)Oc2cc(OCC3CC3)ccc21
IC50 [1]: > 100 µM
IC50 [2]: 1.5 µM

COc1cccc2c1C(=O)C[C@]1(CN3CCC1CC3)O2
IC50 [1]: > 100 µM
IC50 [2]: 5 µM

O=C1C[C@]2(CN3CCC2CC3)Oc2cc(Br)ccc21
IC50 [1]: 15 µM
IC50 [2]: 2.3 µM

O=C1NC2(CN3CCC2CC3)Nc2ccccc21 (stereo not given)
inhibition [4]: > 50%
inhibition [5]: > 50%

COc1ccc2c(c1)C(=O)C[C@]1(CN3CCC1CC3)O2
IC50 [1]: > 10 µM
IC50 [2]: > 10 µM

O=C1C[C@@]2(CN3CCC2CC3)Oc2c1ccc1ccccc21
IC50 [1]: > 100 µM
IC50 [2]: 50 µM

O=C1CC2(CN3CCC2CC3)Oc2c1ccc1ccccc21 (racemic)
IC50 [1]: 20 µM
IC50 [2]: 0.18 µM

O=C1C[C@]2(CN3CCC2CC3)Oc2cc(O)ccc21
IC50 [1]: > 100 µM
IC50 [2]: 2.5 µM

O=C1C[C@]2(CN3CCC2CC3)Oc2c1ccc1ccccc21
inhibition [6]: 57%
IC50 [7]: 0.135 µM
inhibition [8]: 67%
inhibition [9]: 92%
inhibition [10]: 67%
inhibition [11]: 69%
inhibition [12]: 31%
inhibition [13]: 67%
IC50 [1]: 50 µM
inhibition (Homo sapiens): 85%
inhibition [14]: 57%
IC50 [2]: 0.095 µM
inhibition [15]: 42%
inhibition [16]: 27%
inhibition [17]: 99%
inhibition [18]: 64%
